Data: US4436733A, “4"- And 3-ester derivatives of DMT and DMOT” (Eli Lilly and Company, priority 1982, dated 1984)
Read-outs that look alike come from different tables or passages of the source.

Key:
[1] = test system: Streptococcus pyogenes C203; assay: experimental bacterial infection in mice, ED50; type: in vivo; settings: read-out: ED50 (effective dose to protect 50% of the test animals)
Protocol: The ester derivatives of this invention have shown in vivo antimicrobial activity against experimental bacterial infections caused by gram-positivebacteria. When two doses of test compound were administered to mice with experimental infections, the activity observed was measured as an ED50 value [effective dose in mg/kg to protect 50% of the test animals: see Warren Wick, et al., J. Bacteriol. 81, 233-235 (1961)].
^a mg/kg × 2; doses given 1 and 5 hours postinfection

[2] = test system: Staphylococcus aureus V41; assay: standard agar-dilution assay, MIC; type: cell-based; settings: Staphylococcus aureus V41, penicillin resistant strain
Protocol: (§1) The MIC's in Table III were determined by standard agar-dilutionassays. The MIC's in Table IV were obtained using a conventional broth-dilution microtiter test.
^b Penicillinresistant strain

[3] = test system: Streptococcus pyogenes C203; assay: standard agar-dilution assay, MIC; type: cell-based
Protocol: as §1

[4] = test system: Staphylococcus aureus X1.1; assay: standard agar-dilution assay, MIC; type: cell-based
Protocol: as §1

[5] = test system: Staphylococcus aureus S13E; assay: standard agar-dilution assay, MIC; type: cell-based
Protocol: as §1

Streptococcus Group 9960 = assay: standard agar-dilution assay, MIC; type: cell-based
Protocol: as §1

[6] = test system: Staphylococcus epidermidis EPI2; assay: standard agar-dilution assay, MIC; type: cell-based
Protocol: as §1

[7] = test system: Streptococcus Group D X66; assay: standard agar-dilution assay, MIC; type: cell-based
Protocol: as §1

[8] = test system: Staphylococcus epidermidis EPI1; assay: standard agar-dilution assay, MIC; type: cell-based
Protocol: as §1

[9] = test system: Streptococcus pneumoniae Park I; assay: standard agar-dilution assay, MIC; type: cell-based
Protocol: as §1

[10] = test system: Pasteurella multocida 17E; assay: conventional broth-dilution microtiter test, MIC; type: cell-based; settings: bovine isolate
Protocol: as §1

Mycoplasma synoviae = assay: conventional broth-dilution microtiter test, MIC; type: cell-based
Protocol: as §1

Mycoplasma gallisepticum = assay: conventional broth-dilution microtiter test, MIC; type: cell-based
Protocol: as §1

Staphylococcus aureus = assay: conventional broth-dilution microtiter test, MIC; type: cell-based
Protocol: as §1

Mycoplasma hyorhinis = assay: conventional broth-dilution microtiter test, MIC; type: cell-based
Protocol: as §1

Streptococcus sp. 80 = assay: conventional broth-dilution microtiter test, MIC; type: cell-based
Protocol: as §1

[11] = test system: Pasteurella multocida 60A; assay: conventional broth-dilution microtiter test, MIC; type: cell-based; settings: avian isolate
Protocol: as §1

[12] = test system: Staphylococcus aureus X400; assay: standard agar-dilution assay, MIC; type: cell-based; settings: Staphylococcus aureus X400, methicillin resistant strain
Protocol: as §1
^c Methicillinresistant-strain

[13] = C203, mice, oral, doses given 1 and 5 hours postinfection
[14] = C203, sc, mice, subcutaneous, doses given 1 and 5 hours postinfection

CCC(=O)OCC1C=C(C)C=CC(=O)C(C)CC(CC=O)C(OC2OC(C)C(OC3CC(C)(O)C(OC(=O)CC)C(C)O3)C(N(C)C)C2O)C(C)C(O)CC(=O)OC1CC (stereo not shown) [Compound 4, 23,4"-Di-O-Propionyl-DMT]
ED50 [1, 13]: > 150 mg/kg
ED50 [1, 14]: 12 mg/kg
MIC (minimal inhibitory concentration) [2]: 1
MIC (minimal inhibitory concentration) [3]: 0.25
MIC (minimal inhibitory concentration) [4]: 0.5
MIC (minimal inhibitory concentration) [5]: 0.5
MIC (minimal inhibitory concentration) (Streptococcus Group 9960): 0.5
MIC (minimal inhibitory concentration) [6]: 1
MIC (minimal inhibitory concentration) [7]: 1
MIC (minimal inhibitory concentration) [8]: 0.5
MIC (minimal inhibitory concentration) [9]: 0.06
MIC (minimal inhibitory concentration) [10]: 12.5
MIC (minimal inhibitory concentration) (Mycoplasma synoviae): 0.39
MIC (minimal inhibitory concentration) (Mycoplasma gallisepticum): 0.195
MIC (minimal inhibitory concentration) (Staphylococcus aureus): 0.78
MIC (minimal inhibitory concentration) (Mycoplasma hyorhinis): 0.78
MIC (minimal inhibitory concentration) (Streptococcus sp. 80): 1.56
MIC (minimal inhibitory concentration) [11]: 25
MIC (minimal inhibitory concentration) [12]: 1

CCC1OC(=O)CC(O)C(C)C(OC2OC(C)C(OC3CC(C)(O)C(OC(=O)Cc4ccccc4)C(C)O3)C(N(C)C)C2OC(C)=O)C(CC=O)CC(C)C(=O)C=CC(C)=CC1COC(=O)Cc1ccccc1 (stereo not shown) [Compound 5, 2'-O-Acetyl-23,4"-Di-O-Phenylacetyl-DMT]
ED50 ([1]; C203, po): > 144 mg/kg
MIC (minimal inhibitory concentration) [2]: 1
MIC (minimal inhibitory concentration) [4]: 1
MIC (minimal inhibitory concentration) [5]: 1
MIC (minimal inhibitory concentration) (Streptococcus Group 9960): 2
MIC (minimal inhibitory concentration) [6]: 2
MIC (minimal inhibitory concentration) [7]: 2
MIC (minimal inhibitory concentration) [8]: 1
MIC (minimal inhibitory concentration) [10]: > 50
MIC (minimal inhibitory concentration) (Mycoplasma synoviae): 12.5
MIC (minimal inhibitory concentration) (Mycoplasma gallisepticum): 1.56
MIC (minimal inhibitory concentration) (Staphylococcus aureus): 50
MIC (minimal inhibitory concentration) (Mycoplasma hyorhinis): 6.25
MIC (minimal inhibitory concentration) (Streptococcus sp. 80): 1.56
MIC (minimal inhibitory concentration) [11]: > 50
MIC (minimal inhibitory concentration) [12]: 2

CCC1OC(=O)CC(O)C(C)C(OC2OC(C)C(OC3CC(C)(O)C(OC(=O)Cc4ccccc4)C(C)O3)C(N(C)C)C2O)C(CC=O)CC(C)C(=O)C=CC(C)=CC1C (stereo not shown) [Compound 21, 4"-O-Phenylacetyl-DMOT]
MIC (minimal inhibitory concentration) [2]: 16
MIC (minimal inhibitory concentration) [3]: 4
MIC (minimal inhibitory concentration) [4]: 8
MIC (minimal inhibitory concentration) [5]: 8
MIC (minimal inhibitory concentration) (Streptococcus Group 9960): 16
MIC (minimal inhibitory concentration) [6]: 16
MIC (minimal inhibitory concentration) [7]: 8
MIC (minimal inhibitory concentration) [8]: 8
MIC (minimal inhibitory concentration) [9]: 0.5
MIC (minimal inhibitory concentration) [10]: > 50
MIC (minimal inhibitory concentration) (Mycoplasma synoviae): 6.25
MIC (minimal inhibitory concentration) (Mycoplasma gallisepticum): 0.78
MIC (minimal inhibitory concentration) (Staphylococcus aureus): 12.5
MIC (minimal inhibitory concentration) (Mycoplasma hyorhinis): 3.12
MIC (minimal inhibitory concentration) (Streptococcus sp. 80): 6.25
MIC (minimal inhibitory concentration) [11]: 50
MIC (minimal inhibitory concentration) [12]: 16

CCC(=O)OCC1C=C(C)C=CC(=O)C(C)CC(CC=O)C(OC2OC(C)C(OC3CC(C)(O)C(OC(=O)CC)C(C)O3)C(N(C)C)C2OC(C)=O)C(C)C(OC(=O)CC)CC(=O)OC1CC (stereo not shown) [Compound 9, 2'-O-Acetyl-3,23,4"-Tri-O-Propionyl-DMT]
MIC (minimal inhibitory concentration) [2]: 1
MIC (minimal inhibitory concentration) [3]: 0.5
MIC (minimal inhibitory concentration) [4]: 1
MIC (minimal inhibitory concentration) [5]: 1
MIC (minimal inhibitory concentration) (Streptococcus Group 9960): 1
MIC (minimal inhibitory concentration) [6]: 2
MIC (minimal inhibitory concentration) [7]: 1
MIC (minimal inhibitory concentration) [8]: 1
MIC (minimal inhibitory concentration) [9]: 0.25
MIC (minimal inhibitory concentration) [10]: > 50
MIC (minimal inhibitory concentration) (Mycoplasma synoviae): 0.78
MIC (minimal inhibitory concentration) (Mycoplasma gallisepticum): 0.78
MIC (minimal inhibitory concentration) (Staphylococcus aureus): 1.56
MIC (minimal inhibitory concentration) (Mycoplasma hyorhinis): 0.78
MIC (minimal inhibitory concentration) (Streptococcus sp. 80): 1.56
MIC (minimal inhibitory concentration) [11]: > 50
MIC (minimal inhibitory concentration) [12]: 1

CCC(=O)OC1CC(=O)OC(CC)C(C)C=C(C)C=CC(=O)C(C)CC(CC=O)C(OC2OC(C)C(OC3CC(C)(O)C(OC(=O)CC)C(C)O3)C(N(C)C)C2OC(C)=O)C1C (stereo not shown) [Compound 23, 2'-O-Acetyl-3,4"-Di-O-Propionyl-DMOT]
ED50 [1, 13]: > 100 mg/kg
ED50 [1, 14]: > 30 mg/kg
MIC (minimal inhibitory concentration) [2]: 1
MIC (minimal inhibitory concentration) [3]: 0.5
MIC (minimal inhibitory concentration) [4]: 0.5
MIC (minimal inhibitory concentration) [5]: 0.5
MIC (minimal inhibitory concentration) (Streptococcus Group 9960): 1
MIC (minimal inhibitory concentration) [6]: 1
MIC (minimal inhibitory concentration) [7]: 1
MIC (minimal inhibitory concentration) [8]: 0.5
MIC (minimal inhibitory concentration) [9]: 0.06
MIC (minimal inhibitory concentration) [10]: 50
MIC (minimal inhibitory concentration) (Mycoplasma synoviae): 3.12
MIC (minimal inhibitory concentration) (Mycoplasma gallisepticum): 0.39
MIC (minimal inhibitory concentration) (Staphylococcus aureus): 1.56
MIC (minimal inhibitory concentration) (Mycoplasma hyorhinis): 1.56
MIC (minimal inhibitory concentration) (Streptococcus sp. 80): 1.56
MIC (minimal inhibitory concentration) [11]: > 50
MIC (minimal inhibitory concentration) [12]: 1

CCC1OC(=O)CC(O)C(C)C(OC2OC(C)C(OC3CC(C)(O)C(OC(=O)COc4ccccc4)C(C)O3)C(N(C)C)C2OC(C)=O)C(CC=O)CC(C)C(=O)C=CC(C)=CC1COC(=O)COc1ccccc1 (stereo not shown) [Compound 7, 2'-O-Acetyl-4",23-Di-O-Phenoxyacetyl-DMT]
MIC (minimal inhibitory concentration) [2]: 64
MIC (minimal inhibitory concentration) [3]: 8
MIC (minimal inhibitory concentration) [4]: 32
MIC (minimal inhibitory concentration) [5]: 32
MIC (minimal inhibitory concentration) (Streptococcus Group 9960): 16
MIC (minimal inhibitory concentration) [6]: 128
MIC (minimal inhibitory concentration) [7]: 32
MIC (minimal inhibitory concentration) [8]: 32
MIC (minimal inhibitory concentration) [9]: 1
MIC (minimal inhibitory concentration) [10]: > 50
MIC (minimal inhibitory concentration) (Mycoplasma gallisepticum): 0.78
MIC (minimal inhibitory concentration) (Staphylococcus aureus): 12.5
MIC (minimal inhibitory concentration) (Mycoplasma hyorhinis): 0.78
MIC (minimal inhibitory concentration) (Streptococcus sp. 80): 0.78
MIC (minimal inhibitory concentration) [11]: > 50
MIC (minimal inhibitory concentration) [12]: 64

CCC(=O)OCC1C=C(C)C=CC(=O)C(C)CC(CC=O)C(OC2OC(C)C(OC3CC(C)(O)C(OC(=O)CC)C(C)O3)C(N(C)C)C2OC(C)=O)C(C)C(O)CC(=O)OC1CC (stereo not shown) [Compound 3, 2'-O-Acetyl-23,4"-Di-O-Propionyl-DMT]
MIC (minimal inhibitory concentration) [2]: 1
MIC (minimal inhibitory concentration) [3]: 0.25
MIC (minimal inhibitory concentration) [4]: 0.5
MIC (minimal inhibitory concentration) [5]: 0.5
MIC (minimal inhibitory concentration) (Streptococcus Group 9960): 1
MIC (minimal inhibitory concentration) [6]: 1
MIC (minimal inhibitory concentration) [7]: 1
MIC (minimal inhibitory concentration) [8]: 0.5
MIC (minimal inhibitory concentration) [9]: 0.125
MIC (minimal inhibitory concentration) [10]: 12.5
MIC (minimal inhibitory concentration) (Mycoplasma synoviae): 0.78
MIC (minimal inhibitory concentration) (Mycoplasma gallisepticum): 0.097
MIC (minimal inhibitory concentration) (Staphylococcus aureus): 0.78
MIC (minimal inhibitory concentration) (Mycoplasma hyorhinis): 0.39
MIC (minimal inhibitory concentration) (Streptococcus sp. 80): 0.78
MIC (minimal inhibitory concentration) [11]: 12.5
MIC (minimal inhibitory concentration) [12]: 1

CCC1OC(=O)CC(O)C(C)C(OC2OC(C)C(OC3CC(C)(O)C(OC(=O)Cc4ccccc4)C(C)O3)C(N(C)C)C2OC(C)=O)C(CC=O)CC(C)C(=O)C=CC(C)=CC1C (stereo not shown) [Compound 20, 2'-O-Acetyl-4"-O-Phenylacetyl-DMOT]
MIC (minimal inhibitory concentration) [2]: > 128
MIC (minimal inhibitory concentration) [3]: 128
MIC (minimal inhibitory concentration) [4]: > 128
MIC (minimal inhibitory concentration) [5]: > 128
MIC (minimal inhibitory concentration) (Streptococcus Group 9960): > 128
MIC (minimal inhibitory concentration) [6]: > 128
MIC (minimal inhibitory concentration) [7]: > 128
MIC (minimal inhibitory concentration) [8]: > 128
MIC (minimal inhibitory concentration) [9]: 32
MIC (minimal inhibitory concentration) [10]: 50
MIC (minimal inhibitory concentration) (Mycoplasma synoviae): 50
MIC (minimal inhibitory concentration) (Mycoplasma gallisepticum): 6.25
MIC (minimal inhibitory concentration) (Staphylococcus aureus): 25
MIC (minimal inhibitory concentration) (Mycoplasma hyorhinis): 50
MIC (minimal inhibitory concentration) (Streptococcus sp. 80): 50
MIC (minimal inhibitory concentration) [11]: 50
MIC (minimal inhibitory concentration) [12]: > 128

CCC1OC(=O)CC(OC(=O)COc2ccccc2)C(C)C(OC2OC(C)C(OC3CC(C)(O)C(O)C(C)O3)C(N(C)C)C2OC(C)=O)C(CC=O)CC(C)C(=O)C=CC(C)=CC1COC(=O)COc1ccccc1 (stereo not shown) [Compound 8, 2'-O-Acetyl-3,23-Di-O-Phenoxyacetyl-DMT]
MIC (minimal inhibitory concentration) [2]: 1
MIC (minimal inhibitory concentration) [3]: 0.125
MIC (minimal inhibitory concentration) [4]: 0.5
MIC (minimal inhibitory concentration) [5]: 0.5
MIC (minimal inhibitory concentration) (Streptococcus Group 9960): 0.25
MIC (minimal inhibitory concentration) [6]: 1
MIC (minimal inhibitory concentration) [7]: 0.5
MIC (minimal inhibitory concentration) [8]: 1
MIC (minimal inhibitory concentration) [9]: 0.125
MIC (minimal inhibitory concentration) [12]: 1
